Experimental findings from patent publication US4576934A, “Antihypertensive dihydropyridine-5-phosphonic acid cyclic esters” (Nissan Chemical Industries Ltd., priority 1983, dated 1986) are described below.

The test system of data set [1] is taenia caecum of guinea pig. In words: Calcium antagonistic effects: relaxation of CaCl2-induced contraction of K+-depolarized taenia caecum. The class given is cell-based. The settings on record: Cavia porcellus, relative to maximum relaxation by 10^-4 M papaverine, 10 mM CaCl2, 37° C., read-out: pID50 (pID50 = -log [ID50]), concentration producing 50% relaxation (converted). The procedure: (1) Calcium antagonistic effects
Then, the preparation was depolarized by a K^+ rich solution (NaCl: 40 mM, KCl: 100 mM). After 10-20 minutes equilibration period, 10 mM of CaCl2 was added to the bathing solution. The contraction was produced, and then the test compound applied cumulatively.

Data set [2] deals with male spontaneously hypertensive rat (SHR). In words: Antihypertensive effects: systolic blood pressure after oral administration to SHR, tail cuff method. The class given is in vivo. The conditions noted are these: read-out: Antihypertensive effects, Maximum decrease (%). The procedure:
(2) Antihypertensive effects
After oral administration of the test compound dissolved in a H2 O-PEG 400 solvent mixture (H2 O:PEG 400 (w/w)=1:3) to the male spontaneously hypertensive rat (SHR), the systolic blood pressure was measured by a tail cuff method. Prior to the measurement, rats were warmed at 50° C. for five minutes.

The nature of data set [3]: Acute toxicity test (LD50) in mice. The conditions noted are these: mouse, in vivo, male ddY mice, after seven days. The method, then: Test 2: Acute toxicity test
ddY mice (.male., 4 weeks old) were divided into groups of five mice and the test compound dissolved in purified water was administered orally (5% solution) or intraperitoneally (1% solution) to the male ddY mice.
After seven days, LD50 values were calculated from the dead […] recorded in the individual dosage groups by the method of Litchfield-Wilcoxon.

The structures appear in SMILES notation. Structures can show the parent of a compound that is named as a salt.

As for `CC1=C(C(=O)OCCN(C)Cc2ccccc2)C(c2ccccc2Cl)C(P2(=O)OC(C)CC(C)O2)=C(C)N1` (stereo not drawn) [Hydrochloride of Example 8], the EC50 in data set [1] was 2.82 nM. Further, the inhibition in vivo at 10 mg/kg in data set [2] came to 47%.

`CC1=C(C(=O)OCCN(C)Cc2ccccc2)C(c2cccc(Cl)c2)C(P2(=O)OC(C)CCC(C)O2)=C(C)N1` (stereo not drawn) [Hydrochloride of Example 3]: the EC50 in data set [1] was 3.98 nM. In addition, the inhibition in vivo at 10 mg/kg in data set [2] was found to be 15%.

For the molecule `CC1=C(C(=O)OCCN(C)Cc2ccccc2)C(c2ccccc2C(F)(F)F)C(P2(=O)OCC(C)(C)CO2)=C(C)N1` (stereo not drawn) [Hydrochloride of Example 17], the EC50 in data set [1] is 4.27 nM. In data set [2], the inhibition in vivo at 20 mg/kg turned out to be 42%.

Turning to `COC(=O)C1=C(C)NC(C)=C(C(=O)OC)C1c1ccccc1[N+](=O)[O-]` [Nifedipine, reference compound], the EC50 in data set [1] is 2.88 nM. Further, in data set [2], the inhibition in vivo at 10 mg/kg was 26%.

Turning to `CC1=C(C(=O)OCCN(C)Cc2ccccc2)C(c2cccc(Cl)c2)C(P2(=O)OCCC(C)O2)=C(C)N1` (stereo not drawn) [Hydrochloride of Example 14], the EC50 in data set [1] is 3.02 nM. Further, in data set [2], the inhibition in vivo at 10 mg/kg turned out to be 14%.

`CC1=C(C(=O)OCCN(C)Cc2ccccc2)C(c2ccccc2Cl)C(P2(=O)OC(C)CCC(C)O2)=C(C)N1` (stereo not drawn) [Hydrochloride of Example 4]: in data set [1], the EC50 is 4.9 nM. For the same molecule, the inhibition in vivo at 10 mg/kg in data set [2] was determined as 15%.

For the molecule `COC(=O)C1=C(C)NC(C)=C(P2(=O)OC(C)CC(C)O2)C1c1ccccc1C(F)(F)F` (stereo not drawn) [Hydrochloride of Example 21], the EC50 in data set [1] was 1.91 nM. In data set [2], the inhibition in vivo at 20 mg/kg came out at 35%.

Consider `CC1=C(C(=O)OCCN(C)Cc2ccccc2)C(c2cccc([N+](=O)[O-])c2)C(P2(=O)OCC(C)(C)CO2)=C(C)N1` (stereo not drawn) [Hydrochloride of Example 16], for which the EC50 in data set [1] is 3.55 nM. Moreover, in data set [2], the inhibition in vivo at 10 mg/kg came to 21%.

With `CC1=C(C(=O)OCCN2CCN(C(c3ccccc3)c3ccccc3)CC2)C(c2ccccc2C(F)(F)F)C(P2(=O)OC(C)CC(C)O2)=C(C)N1` (stereo not drawn) [Hydrochloride of Example 10], in data set [1], the EC50 was 57.5 nM. In addition, in data set [2], the inhibition in vivo at 20 mg/kg amounted to 46%.

In the case of `CC1=C(C(=O)OCCN(C)Cc2ccccc2)C(c2cccc([N+](=O)[O-])c2)C(P2(=O)OC(C)CC(C)O2)=C(C)N1` (stereo not drawn) [Hydrochloride of Example 5], the EC50 in data set [1] is 2.45 nM. The inhibition in vivo at 20 mg/kg in data set [2] amounted to 50%.

As to `CC1=C(C(=O)OCCN(C)Cc2ccccc2)C(c2ccccc2Cl)C(P2(=O)OCC(C)(C)CO2)=C(C)N1` (stereo not drawn) [Hydrochloride of Example 19], the EC50 in data set [1] is 5.13 nM. Further, the inhibition in vivo at 10 mg/kg in data set [2] amounted to 30%.

Consider `CC1=C(C(=O)OCCN(C)Cc2ccccc2)C(c2cccc([N+](=O)[O-])c2)C(P2(=O)OCCC(C)O2)=C(C)N1` (stereo not drawn) [Hydrochloride of Example 12], for which the EC50 in data set [1] was 2.57 nM. The inhibition in vivo at 10 mg/kg in data set [2] amounted to 18%.

As to `CC1=C(C(=O)OCCN(C)Cc2ccccc2)C(c2ccccc2C(F)(F)F)C(P2(=O)OCCC(C)O2)=C(C)N1` (stereo not drawn) [Hydrochloride of Example 13], the EC50 in data set [1] was 12.3 nM. Besides, in data set [2], the inhibition in vivo at 10 mg/kg was 39%.

Regarding `COc1ccc([C@@H]2Sc3ccccc3N(CCN(C)C)C(=O)[C@@H]2OC(C)=O)cc1` [Diltiazem, reference compound], the EC50 in data set [1] was 275 nM. Besides, in data set [2] (dose 60 mg/kg), the inhibition in vivo at 60 mg/kg worked out at 10%.

Take `CC1=C(C(=O)OCCN(C)Cc2ccccc2)C(c2ccccc2C(F)(F)F)C(P2(=O)OC(C)CC(C)O2)=C(C)N1` (stereo not drawn) [Hydrochloride of Example 6]: the EC50 in data set [1] is 4.47 nM. For the same molecule, in data set [2] (dose 5 mg/kg), the inhibition in vivo at 5 mg/kg is 37%. The LD50 at 168 h in data set [3] (ip, i.p. (1% solution)) turned out to be 17 mg/kg; in data set [3] (po, p.o. (5% solution)), 53 mg/kg.

Take `CC1=C(C(=O)OCCN(C)Cc2ccccc2)C(c2cccc([N+](=O)[O-])c2)C(P2(=O)OC(C)CCC(C)O2)=C(C)N1` (stereo not drawn) [Hydrochloride of Example 1]: the EC50 in data set [1] is 7.08 nM. Also, the inhibition in vivo at 20 mg/kg in data set [2] is 50%.

As for `CC1=C(C(=O)OCCN2CCN(C(c3ccccc3)c3ccccc3)CC2)C(c2ccccc2Cl)C(P2(=O)OC(C)CC(C)O2)=C(C)N1` (stereo not drawn) [Hydrochloride of Example 11], the EC50 in data set [1] was 24.5 nM. The inhibition in vivo at 10 mg/kg in data set [2] worked out at 29%.

For `COC(=O)C1=C(C)NC(C)=C(P2(=O)OCCC(C)O2)C1c1ccccc1C(F)(F)F` (stereo not drawn) [Hydrochloride of Example 20], in data set [1], the EC50 was 2.04 nM. For the same molecule, the inhibition in vivo at 20 mg/kg in data set [2] worked out at 32%.

For the molecule `CC1=C(C(=O)OCCN(C)Cc2ccccc2)C(c2cccc(Cl)c2)C(P2(=O)OC(C)CC(C)O2)=C(C)N1` (stereo not drawn) [Hydrochloride of Example 7], the EC50 in data set [1] was 5.5 nM. Further, in data set [2], the inhibition in vivo at 20 mg/kg stood at 49%. In addition, the LD50 at 168 h was determined as 23 mg/kg in data set [3] (ip, i.p. (1% solution)) and 74 mg/kg in data set [3] (po, p.o. (5% solution)).

For the molecule `CC1=C(C(=O)OCCN2CCN(C(c3ccccc3)c3ccccc3)CC2)C(c2cccc([N+](=O)[O-])c2)C(P2(=O)OC(C)CC(C)O2)=C(C)N1` (stereo not drawn) [Hydrochloride of Example 9], the EC50 in data set [1] was 29.5 nM. Also, the inhibition in vivo at 20 mg/kg in data set [2] is 36%.

For `COC(=O)C1=C(C)NC(C)=C(C(=O)OCCN(C)Cc2ccccc2)C1c1cccc([N+](=O)[O-])c1` (stereo not drawn) [Nicardipine, reference compound], the EC50 in data set [1] was 0.417 nM. Further, the inhibition in vivo at 20 mg/kg in data set [2] was 34%. For the same molecule, the LD50 at 168 h in data set [3] (ip, i.p. (1% solution)) was found to be 166 mg/kg; in data set [3] (po, p.o. (5% solution)) it was 561 mg/kg.

Consider `CC1=C(C(=O)OCCN(C)Cc2ccccc2)C(c2cccc(Cl)c2)C(P2(=O)OCC(C)(C)CO2)=C(C)N1` (stereo not drawn) [Hydrochloride of Example 18], for which, in data set [1], the EC50 is 4.47 nM. For the same molecule, the inhibition in vivo at 10 mg/kg in data set [2] came out at 17%.

As for `CC1=C(C(=O)OCCN(C)Cc2ccccc2)C(c2ccccc2C(F)(F)F)C(P2(=O)OC(C)CCC(C)O2)=C(C)N1` (stereo not drawn) [Hydrochloride of Example 2], the EC50 in data set [1] is 5.89 nM. The inhibition in vivo at 20 mg/kg in data set [2] was found to be 45%.

For the molecule `CC1=C(C(=O)OCCN(C)Cc2ccccc2)C(c2ccccc2Cl)C(P2(=O)OCCC(C)O2)=C(C)N1` (stereo not drawn) [Hydrochloride of Example 15], in data set [1], the EC50 is 3.24 nM. For the same molecule, the inhibition in vivo at 10 mg/kg in data set [2] turned out to be 38%.

The term LD50 denotes the dose expected to kill half of the subjects tested. A lower LD50 goes with a more toxic substance.
